# pIC50: −log10 of the molar value. Values joined by “and” are separate entries in the source; they are usually repeats but may differ in a detail not shown here. Equal values may be shown once.
# Assays:
# HDAC10 = target: T1, HDAC10 (Homo sapiens, UniProt Q969S8); assay: In vitro HDAC profiling (deacetylation assay), HDAC10; type: biochemical; conditions: for HDAC Activity (Fluorescent counts): Repeat1/Repeat 2
# T1 construct: purchased BPS Bioscience #50051-11
# T1 sequence (Q969S8 1-669): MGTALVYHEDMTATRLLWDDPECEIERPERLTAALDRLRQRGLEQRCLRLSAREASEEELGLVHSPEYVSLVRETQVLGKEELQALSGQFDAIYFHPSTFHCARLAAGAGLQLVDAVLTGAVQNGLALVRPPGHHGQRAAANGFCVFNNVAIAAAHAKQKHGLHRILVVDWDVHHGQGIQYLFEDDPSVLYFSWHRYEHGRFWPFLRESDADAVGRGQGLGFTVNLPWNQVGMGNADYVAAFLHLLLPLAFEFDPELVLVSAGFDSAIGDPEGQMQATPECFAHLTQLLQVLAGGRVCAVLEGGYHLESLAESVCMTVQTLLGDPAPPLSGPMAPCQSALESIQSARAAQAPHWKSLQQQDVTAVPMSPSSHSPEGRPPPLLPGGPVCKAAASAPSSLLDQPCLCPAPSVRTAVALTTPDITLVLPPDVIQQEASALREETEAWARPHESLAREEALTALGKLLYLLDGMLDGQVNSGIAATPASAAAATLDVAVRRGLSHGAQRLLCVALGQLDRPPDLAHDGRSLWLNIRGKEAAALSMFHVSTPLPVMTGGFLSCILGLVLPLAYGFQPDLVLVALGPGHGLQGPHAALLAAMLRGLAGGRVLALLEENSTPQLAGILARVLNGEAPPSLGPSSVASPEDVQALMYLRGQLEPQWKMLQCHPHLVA
# Protocol: HDAC profiling was performed at BPS Bioscience (San Diego, CA). All of the compounds are dissolved in DMSO. A series of dilutions of the compounds were prepared with 10% DMSO in HDAC assay buffer (#50031) and 5 µl of the dilution was added to a 50 µl reaction so that the final concentration of DMSO is 1% in all of reactions. All of the enzymatic reactions were conducted in duplicate at 37 °C for 30 mins, except that the enzyme reactions for HDAC11 were at room temperature for 3 hrs. All of the reactions were performed in a 50 µl mixture containing HDAC assay buffer, 5 µg BSA, an HDAC substrate [HDAC Substrate 3 (BPS number 50037) or HDAC Class 2a Substrate 1 (BPS number 50040)], an HDAC enzyme (#50051-11) and a test compound. After enzymatic reactions, 50 μl of HDAC Developer (#50030) was added to each well and the plate was incubated at room temperature for an additional 20 mins. Fluorescence intensity was measured at an excitation of 360 nm and an emission of 460 nm using a Tecan Infinite M1000 microplate reader. HDAC activity assays were performed in duplicates at each concentration. The fluorescent intensity data were analyzed using the computer software, Graphpad Prism. In the absence of the compound, the fluorescent intensity (Ft) in each data set was defined as 100% activity. In the absence of HDAC, the fluorescent intensity (Fb) in each data set was defined as 0% activity. The percent activity in the presence of each compound was calculated according to the following equation: %activity = (F − Fb)/(Ft − Fb), where F = the fluorescent intensity in the presence of the compound. The values of % activity versus a series of compound concentrations were then plotted using non-linear regression analysis of Sigmoidal dose-response curve generated with the equation Y = B + (T − B)/1 + 10((LogIC50 − X) × Hill Slope), where Y = percent activity, B = minimum percent activity, T = maximum percent activity, X = logarithm of compound and Hill Slope = slope factor or Hill coefficient. The IC50 value was determined by the concentration causing a half-maximal percent activity.
# [1] = system: GLI1 binding to DNA in RMS13 cells; assay: GLI DNA binding assay (biotinylated oligo pulldown); type: cell-based; conditions: lysate of RMS13 cells treated 48 hrs
# Protocol: A detailed protocol for DNA binding assay was previously described. Briefly, cells treated for 48 hrs with compounds were lysed in 1% NP40/phosphate buffered saline/protease inhibitors and cleared using a microcentrifuge. The lysate was then incubated with 0.5 µM of double-strand biotinylated oligonucleotides and 40 µl streptavidin-agarose bead suspension (Thermo Scientific, 20349) for 2 hrs. The streptavidin agarose beads are washed (3X) with 1% NP40/phosphate buffered saline/protease inhibitors and eluted with 2X Laemmli sample buffer. The supernatants are separated on SDS-PAGE and analyzed using western blotting. Antibodies were purchased from the following vendors: GLI1 (Cell Signaling Technology, #2534) and actin (SIGMA, #A5441).
compound,measurement,setting,value
O=C(CCCCCCC(=O)Nc1ccc(Cl)c(C(=O)Nc2ccc(NC(=O)c3cc(Cl)ccc3Cl)cc2)c1)NO [IHR-SAHA],HDAC Activity (Fluorescent counts),"HDAC10; HDAC10, WW01 0 Log nM",21183 Fluorescent counts and 21616 Fluorescent counts
same,HDAC Activity (Fluorescent counts),"HDAC10; HDAC10, WW01 0.5 Log nM",20859 Fluorescent counts and 21260 Fluorescent counts
same,HDAC Activity (Fluorescent counts),"HDAC10; HDAC10, WW01 1 Log nM",19414 Fluorescent counts and 20650 Fluorescent counts
same,HDAC Activity (Fluorescent counts),"HDAC10; HDAC10, WW01 1.5 Log nM",17046 Fluorescent counts and 19100 Fluorescent counts
same,HDAC Activity (Fluorescent counts),"HDAC10; HDAC10, WW01 2 Log nM",13500 Fluorescent counts and 13556 Fluorescent counts
same,HDAC Activity (Fluorescent counts),"HDAC10; HDAC10, WW01 2.5 Log nM",9393 Fluorescent counts and 9233 Fluorescent counts
same,HDAC Activity (Fluorescent counts),"HDAC10; HDAC10, WW01 3 Log nM",6324 Fluorescent counts and 6307 Fluorescent counts
same,HDAC Activity (Fluorescent counts),"HDAC10; HDAC10, WW01 3.5 Log nM",4593 Fluorescent counts and 4402 Fluorescent counts
same,HDAC Activity (Fluorescent counts),"HDAC10; HDAC10, WW01 4 Log nM",3949 Fluorescent counts and 4170 Fluorescent counts
same,HDAC Activity (Fluorescent counts),"HDAC10; HDAC10, WW01 -0.5 Log nM",22257 Fluorescent counts and 21526 Fluorescent counts
same,pIC50,"HDAC10; in vitro deacetylation assay, duplicates",6.76
same,GLI1 binding to immobilized oligos with consensus GLI binding sequence,[1],loss of GLI1 binding

# From paper PMC5773580, “A synthetic combinatorial approach to disabling deviant Hedgehog signaling” (Scientific Reports, 2018)
